Patent US20140093884A1, “Process for Identifying Novel Anti-Inflammatory Molecules with Reduced Direct Transrepression of Genes Induced by Glucocorticoids” (UNIVERSITE DE STRASBOURG, priority 2011, published 2014)

Tests used:
[1] = test system: IR nGRE (pGL3(VDRE) IR1 nGRE luciferase reporter); assay: Luciferase reporter assay in A549 cells, pGL3(VDRE) IR nGRE plasmids; type: cell-based, human
Experimental: Luciferase reporter assay. A549 cells seeded on 24-well tissue culture plates overnight at 70% confluency were transfected with 100 ng pCMV β galactosidase, 200 ng pGL3 reporter plasmids and wherever indicated, with 600 ng pSG5 hVDR plasmid (Green et al., 1988) into each well and maintained in medium containing charcoal treated FCS. 24 hours post-transfection, medium was changed and different compounds were added to it for 6 hours. […] Luciferase assay was carried out as instructed (Promega). Normalized values are reported as the mean±SEM; each value originates from at least three individual transfections with assays performed in duplicate.
To investigate whether additional DNA elements could be required to generate a repressing activity, the TSLP IR1 nGRE was inserted upstream of an enhancerless SV40 early promoter located 5′ to the luciferase coding sequence of pGL3 vector, A VDRE separated from the IR1 nGRE by a 314 bp-long DNA segment devoid of any known transregulator binding site (not shown) was inserted to generate a luciferase-expressing reporter plasmid (pGL3(VDRE) IR1 nGRE, FIG. 4), which was transfected into A549 cells, followed by addition of VitD3 and/or FA.
(§1) To investigate whether the 1 bp spacer between the inverted repeated motifs of TSLP IR1 nGRE was critical for its repressing function, pGL3-based luciferase plasmids containing the VDRE and TSLP nGRE motifs spaced by 0 to 5 bases (IR0 to IR5 nGREs) were transfected into A549 cells.

[2] = test system: (+)GRE (PGL3(VDRE) (+)GRE luciferase reporter); assay: Luciferase reporter assay in A549 cells, PGL3(VDRE) (+)GRE vector; type: cell-based, human; conditions: FA
Experimental: Luciferase reporter assay. A549 cells seeded on 24-well tissue culture plates overnight at 70% confluency were transfected with 100 ng pCMV β galactosidase, 200 ng pGL3 reporter plasmids and wherever indicated, with 600 ng pSG5 hVDR plasmid (Green et al., 1988) into each well and maintained in medium containing charcoal treated FCS. 24 hours post-transfection, medium was changed and different compounds were added to it for 6 hours. Final concentrations of the compounds are: FA, 500 nM; Dex or RU24858, 300 nM or 500 nM (wherever 300 nM Dex or RU was used, it is indicated in the figure, in all other cases, 500 nM concentration was used); active vitamin D3, 1 μM; IL-1β, 5 ng/ml; BAY 11-7082, 5 μM, JNK inhibitor II, 25 μM. Luciferase assay was carried out as instructed (Promega). Normalized values are reported as the mean±SEM; each value originates from at least three individual transfections with assays performed in duplicate. […]

GR binding to IR nGREs = molecular target: T1, GR binding to IR nGREs (Homo sapiens, UniProt P04150); assay: ChIP assay of GR binding to IR0 to IR5 nGRE reporter plasmids in A549 cells; type: cell-based; conditions: upon FA addition
T1 construct: GR-expressing cells are in vitro cultured cells, preferably human lung epithelial carcinoma cells A549; endogenous in cells; host or cells: A549 (CCL-185, ATCC)
T1 sequence (P04150 1-777): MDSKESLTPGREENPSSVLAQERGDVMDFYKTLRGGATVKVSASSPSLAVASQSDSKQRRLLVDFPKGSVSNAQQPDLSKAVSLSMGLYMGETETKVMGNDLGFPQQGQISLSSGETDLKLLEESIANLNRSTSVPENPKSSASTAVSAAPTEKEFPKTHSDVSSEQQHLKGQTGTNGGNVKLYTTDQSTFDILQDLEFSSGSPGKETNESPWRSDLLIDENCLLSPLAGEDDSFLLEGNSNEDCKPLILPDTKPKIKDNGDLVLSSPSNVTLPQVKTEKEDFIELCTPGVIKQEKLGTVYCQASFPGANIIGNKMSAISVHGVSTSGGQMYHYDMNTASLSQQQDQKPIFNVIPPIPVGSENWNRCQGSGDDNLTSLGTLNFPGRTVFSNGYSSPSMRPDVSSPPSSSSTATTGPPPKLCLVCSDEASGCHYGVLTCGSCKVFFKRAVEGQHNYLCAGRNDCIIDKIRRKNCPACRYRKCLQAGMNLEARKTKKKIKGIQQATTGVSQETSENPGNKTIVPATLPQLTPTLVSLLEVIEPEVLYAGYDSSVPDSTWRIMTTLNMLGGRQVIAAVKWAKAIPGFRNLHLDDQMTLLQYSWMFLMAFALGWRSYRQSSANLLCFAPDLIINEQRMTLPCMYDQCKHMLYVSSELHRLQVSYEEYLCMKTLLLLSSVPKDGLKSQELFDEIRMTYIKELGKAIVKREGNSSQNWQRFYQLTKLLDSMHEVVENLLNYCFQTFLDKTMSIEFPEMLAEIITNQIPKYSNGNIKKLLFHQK
Experimental: For ChIP assays to test GR and cofactor binding to the nGRE, +GRE or NFκB region of various luciferase reporter plasmids, ˜60% confluent A549 cells in 100 mm TC dish were transfected with 2 μg of respective plasmids using fugene 6 reagent (Roche) and maintained in charcoal treated FCS containing medium. 44 hours post-transfection, 500 nM FA or Dex or RU24858 and/or 5 μM RU486, 5 ng/ml IL-1β (final conc.) was added to the medium for 2 hours, followed by formaldehyde treatment and processing as described above.
as §1

GR binding to IR0 nGRE (ChIP) (GR binding to IR nGREs): less efficient
GR binding to IR1 and IR2 nGREs (ChIP) (GR binding to IR nGREs): similarly bound
GR binding to IR3, IR4 and IR5 nGREs (ChIP) (GR binding to IR nGREs): not detectable
SMILES: CC1(C)O[C@@H]2C[C@H]3[C@@H]4C[C@H](F)C5=CC(=O)C=C[C@]5(C)[C@@]4(F)[C@@H](O)C[C@]3(C)[C@]2(C(=O)CO)O1 [FA, fluocinolone acetonide]
reporter genes containing the IR1 nGRE DBS of various genes ([1]; 6 hours, FIG. 13): induces repression
repressing activity with mutant IR1 nGRE to which recombinant GR does not bind ([1]; FA): no FA-inducible repressing activity
basal and VDRE-mediated VitD3-induced luciferase expression in presence of IR1 nGRE ([1]; pGL3(VDRE) IR1 nGRE, FA addition, FIG. 11): decreased expression
change in basal and VitD3-induced luciferase activity for IR3, IR4 and IR5 nGREs ([1]; upon FA addition): no significant change
decrease in basal and VitD3-induced luciferase activity for IR1 and IR2 compared with IR0 nGRE ([1]; upon FA addition): stronger
luciferase expression when IR1 nGRE replaced by a (+)GRE [2]: increase
